# Laboratory results taken from US9932328B2, “3-(6-alkoxy-5-chlorobenzo[d]isoxazol-3-yl)propanoic acid useful as kynurenine monooxygenase inhibitors” (GlaxoSmithKline Intellectual Property Development Limited, priority 2014, dated 2018).
# Where “and” joins values, the source holds several entries; their conditions need not be identical. Equal entries are not always repeated.
# Biological target: T1, human KMO (Homo sapiens, UniProt O15229)
# T1 construct: Full length human KMO was amplified by PCR; made in house; host or cells: Spodoptera frugiperda (Sf9) cells, baculovirus; used as purified membranes
# T1 sequence (O15229 whole entry): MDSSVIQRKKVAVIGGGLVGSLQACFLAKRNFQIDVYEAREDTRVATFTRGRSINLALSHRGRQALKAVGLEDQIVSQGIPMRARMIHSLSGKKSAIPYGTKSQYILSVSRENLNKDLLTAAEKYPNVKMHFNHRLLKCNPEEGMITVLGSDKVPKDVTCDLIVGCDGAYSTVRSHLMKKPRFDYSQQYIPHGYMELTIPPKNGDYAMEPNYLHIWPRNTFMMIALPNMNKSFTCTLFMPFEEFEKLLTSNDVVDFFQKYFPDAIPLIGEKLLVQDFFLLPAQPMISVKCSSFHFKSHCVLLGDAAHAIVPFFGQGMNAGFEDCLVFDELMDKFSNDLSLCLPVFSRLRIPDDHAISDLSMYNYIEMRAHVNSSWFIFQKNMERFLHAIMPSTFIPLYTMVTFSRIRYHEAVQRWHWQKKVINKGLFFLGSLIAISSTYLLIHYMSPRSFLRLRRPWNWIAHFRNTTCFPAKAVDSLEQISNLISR
# Experiment: KMO MS Rapidfire functional assay (RapidFire high-throughput mass spectrometry, Method 1 or Method 2)
# Type: biochemical
# Conditions: in at least one of the MS Rapidfire assays (Method 1 or 2); isolated human KMO-membranes, 10 μM Kynurenine, 200 μM NADPH; values exemplary only
# Excerpt: KMO inhibition can be determined by MS Rapidfire assay performed on the human cloned enzyme as described herein.
# L-Kynurenine (Kyn), 3-hydroxy-DL-kynurenine (3-HK), β-Nicotinamide adenine dinucleotide 2′-phosphate reduced tetrasodium salt hydrate (NADPH), 4-(2-hydroxyethyl)piperazine-1-ethanesulfonic acid (Hepes), DL-dithiothreitol (DTT), ethylenediaminetetraacetic acid (EDTA), CHAPS and trifluoroacetic acid (TFA) were purchased from Sigma-Aldrich Ltd. (Gillingham, Dorset, UK). HPLC-grade acetonitrile and formic acid were supplied by Fisher Scientific (Loughborough, UK).
# Full length human KMO was amplified by PCR from pcDNA5/FRT/V5-His-TOPO/hKMO (vector supplied by the University of Edinburgh) and cloned into pGEX6P-1 (GE Healthcare) using BamH1 and Sal1 restriction sites. DNA encoding the N-terminal glutathione-S-transferase (GST) tag, followed by a Pre-Scission protease cleavage site, and the full length KMO was amplified by PCR from pGEX6P-1-KMO and cloned into pFastbac1 (Invitrogen) using Xbal and EcoR1 restriction sites.
# pFastbac1 GST-KMO was transposed into the baculovirus genome using the BAC-to-BAC technology (Invitrogen) and bacmid DNA was prepared and transfected into Spodoptera frugiperda (Sf9) cells using Cellfectin II (Invitrogen).
# A P1 virus stock was generated from a single clone and used to infect 3× 1.5 L cultures of Sf9 cells in 3 L Corning Fernbach flasks. […] Cells were harvested after 48 hours and disrupted by blending in 50 mM Hepes, pH 7.4, 1 mM EDTA buffer containing protease inhibitors. A low speed spin (400 g) was used to remove cell debris, followed by a high speed spin (75 000 g) to pellet the membranes. The membranes were purified in a discontinuous sucrose density gradient by re-suspending in 10% (w/v) sucrose and layering over 40% (w/v) sucrose, both in the above buffer. This was centrifuged at 150 000 g and the purified membranes were taken from the interface, collected by centrifugation at 100 000 g, resuspended in buffer and aliquoted for storage at −80° C.
# 11 point, 3-fold serial dilutions of test compounds were prepared in DMSO and 100 nL of these solutions were dispensed into 384-well V-base polypropylene plates (Greiner Bio-one, Stonehouse, UK) using an Echo 555 acoustic dispenser (Labcyte, Sunnyvale, Calif.). This gave a final assay concentration range between 100 μM and 1.7 nM in 10 μL final assay volume (see below). 100 nL DMSO was dispensed into columns 6 and 18 for high and low controls, respectively, with prior inactivation of the enzyme in column 18 by pre-dispense of 30 μL of 0.5% (v/v) TFA.
# Conditions for the assay of human KMO using isolated KMO-membranes were 50 mM Hepes, pH 7.5, 2 mM DTT, 1 mM EDTA, 100 μM CHAPS, 200 μM NADPH, 10 μM Kynurenine and 8 μg/ml KMO-membranes in a total reaction volume of 10 μL.
# Assays were performed by initially dispensing 5 μL of a 2× Enzyme solution (16 μg/ml KMO-membranes in 50 mM Hepes, pH 7.5, 2 mM DTT, 2 mM EDTA, 200 μM CHAPS) into plates containing 100 nL compounds and incubating for 10 min at ambient temperature. Reactions were initiated by addition of 5 μL of 2× Substrate solution (400 μM NADPH, 20 μM Kynurenine in 50 mM Hepes, pH 7.5, 2 mM DTT) and incubated for 2 h at room temperature before quenching the reaction with 30 μL of 0.5% (v/v) TFA. Plates were centrifuged at 2500 rpm for 10 min before analysis. All additions were made using a Multidrop Combi dispenser (Thermo Fisher Scientific).
# Quenched assay plates were transferred to a high-throughput RapidFire200 integrated autosampler/solid-phase extraction (SPE) system (Agilent Technologies, Wakefield, Mass.).
row,median pIC50,Structure (SMILES)
1,8.7,"Cc1ccc([C@@H](C)Oc2cc3onc(CCC(=O)O)c3cc2Cl)nn1 [Example 20, (R)-3-(5-chloro-6-(1-(6-methylpyridazin-3-yl)ethoxy)benzo[d]isoxazol-3-yl)propanoic acid]"

# Same assay, conditions: in at least one of the MS Rapidfire assays (Method 1 or 2); isolated human KMO-membranes, 10 μM Kynurenine, 200 μM NADPH; values exemplary only; read-out: median pIC50 (converted)
row,IC50,Structure (SMILES)
1,≤ 0.01 µM and 0.00398 µM,"CCC(Oc1cc2onc(CCC(=O)O)c2cc1Cl)c1ccccn1 (single isomer, unassigned) [Example 25, 3-(5-chloro-6-(1-(pyridin-2-yl)propoxy)benzo[d]isoxazol-3-yl)propanoic acid]"
2,0.01 µM,"Cc1ncc(C(C)Oc2cc3onc(CCC(=O)O)c3cc2Cl)o1 (single isomer, unassigned) [Example 35, 3-{5-Chloro-6-[1-(2-methyl-1,3-oxazol-5-yl)ethoxy]-1,2-benzoxazol-3-yl}propanoic acid]"
3,0.01 µM,"CC(Oc1cc2onc(CCC(=O)O)c2cc1Cl)c1ncc(Cl)cn1 (single isomer, unassigned) [Example 37, 3-{5-Chloro-6-[1-(5-chloropyrimidin-2-yl)ethoxy]-1,2-benzoxazol-3-yl}propanoic acid]"
4,0.01 µM,"Cc1cnc(C(C)Oc2cc3onc(CCC(=O)O)c3cc2Cl)nc1 (single isomer, unassigned) [Example 39, 3-{5-Chloro-6-[1-(5-methylpyrimidin-2-yl)ethoxy]-1,2-benzoxazol-3-yl}propanoic acid]"
5,0.01 µM,"CC[C@H](Oc1cc2onc(CCC(=O)O)c2cc1Cl)c1ncccn1 (single isomer, unassigned) [Example 43]"
6,0.01 µM,"CCC(Oc1cc2onc(CCC(=O)O)c2cc1Cl)c1ccc(C)nn1 (single isomer, unassigned) [Example 47, 3-{5-Chloro-6-[1-(6-methylpyridazin-3-yl)propoxy]-1,2-benzoxazol-3-yl}propanoic acid]"
7,0.00251 µM,"O=C(O)CCc1noc2cc(OCc3ccc(Cl)cn3)c(Cl)cc12 [Example 7, 2-amino-2-(hydroxymethyl)propane-1,3-diol 3-(5-chloro-6-((5-chloropyridin-2-yl)methoxy)benzo[d]isoxazol-3-yl)propanoate]"

# The remaining lines, values behind:
row,Structure (SMILES),IC50
1,"CC(Oc1cc2onc(CCC(=O)O)c2cc1Cl)c1cccnn1 (single isomer, unassigned) [Example 22, 3-(5-chloro-6-(1-(pyridazin-3-yl)ethoxy)benzo[d]isoxazol-3-yl)propanoic acid]",≤ 0.01 µM
2,"CCC(Oc1cc2onc(CCC(=O)O)c2cc1Cl)c1ccc(C)cn1 (single isomer, unassigned) [Example 23, 3-(5-chloro-6-(1-(5-methylpyridin-2-yl)propoxy)benzo[d]isoxazol-3-yl)propanoic acid]",≤ 0.01 µM
3,"CCC(Oc1cc2onc(CCC(=O)O)c2cc1Cl)c1ccc(Cl)cn1 (single isomer, unassigned) [Example 27, 3-(5-chloro-6-(1-(5-chloropyridin-2-yl)propoxy)benzo[d]isoxazol-3-yl)propanoic acid]",≤ 0.01 µM
4,"CCc1ccc(C(C)Oc2cc3onc(CCC(=O)O)c3cc2Cl)nc1 (single isomer, unassigned) [Example 29, 3-{5-Chloro-6-[1-(5-ethylpyridin-2-yl)ethoxy]-1,2-benzoxazol-3-yl}propanoic acid]",0.01 µM
5,"CCc1cccc(C(C)Oc2cc3onc(CCC(=O)O)c3cc2Cl)n1 (single isomer, unassigned) [Example 31, 3-{5-Chloro-6-[1-(6-ethylpyridin-2-yl)ethoxy]-1,2-benzoxazol-3-yl}propanoic acid]",0.01 µM
6,"CCc1coc(C(C)Oc2cc3onc(CCC(=O)O)c3cc2Cl)n1 (single isomer, unassigned) [Example 41, 3-{5-Chloro-6-[1-(4-ethyl-1,3-oxazol-2-yl)ethoxy]-1,2-benzoxazol-3-yl}propanoic acid]",0.01 µM
7,"CCC(Oc1cc2onc(CCC(=O)O)c2cc1Cl)c1cccnn1 (single isomer, unassigned) [Example 46, 3-{5-Chloro-6-[1-(pyridazin-3-yl)propoxy]-1,2-benzoxazol-3-yl}propanoic acid]",0.01 µM
8,"CCC(Oc1cc2onc(CCC(=O)O)c2cc1Cl)c1ncc(C)cn1 (single isomer, unassigned) [Example 49, 3-{5-Chloro-6-[1-(5-methylpyrimidin-2-yl)propoxy]-1,2-benzoxazol-3-yl}propanoic acid]",0.01 µM
9,"CCC(Oc1cc2onc(CCC(=O)O)c2cc1Cl)c1ncc(Cl)cn1 (single isomer, unassigned) [Example 51, 3-{5-Chloro-6-[1-(5-chloropyrimidin-2-yl)propoxy]-1,2-benzoxazol-3-yl}propanoic acid]",0.01 µM
10,"O=C(O)CCc1noc2cc(OCc3ccccn3)c(Cl)cc12 [Example 2, 2-amino-2-(hydroxymethyl)propane-1,3-diol 3-(5-chloro-6-(pyridin-2-ylmethoxy)benzo[d]isoxazol-3-yl)propanoate]",≤ 0.01 µM
11,"O=C(O)CCc1noc2cc(OCc3cccnn3)c(Cl)cc12 [Example 13, 3-(5-chloro-6-(pyridazin-3-ylmethoxy)benzo[d]isoxazol-3-yl)propanoic acid]",≤ 0.01 µM
12,"Cc1ccc([C@@H](C)Oc2cc3onc(CCC(=O)O)c3cc2Cl)nn1 [Example 20, (R)-3-(5-chloro-6-(1-(6-methylpyridazin-3-yl)ethoxy)benzo[d]isoxazol-3-yl)propanoic acid]",≤ 0.01 µM
